# Data reported in patent US20060153781A1, “Repair of dna mutagenic damage” (Novogen Research Pty Ltd, a Corporation, priority 2002, published 2006).
# Several values for one entry are separate records, joined by “and”; a condition that tells them apart may be missing. Equal entries are not always repeated.
# Legend:
# Assay type in all cases: in vivo
# [1] = system: metallothionein (MT) in the epidermis; assay: MT production in skin biopsies of human volunteers after UV irradiation (immunohistochemistry); settings: 24 hrs after 2.5 MED SSUV
# Protocol: (§1) Equol was applied to the skin of five human volunteers immediately after, and at 4 hours and 6 hours post-UV irradiation. A control lotion was also used containing no equol. Twenty-four hours after UV irradiation, skin biopsies were taken and MT production was measured using immunohistochemistry.
# Approximately half of the cells in the basal epidermis constitutively expressed MT at baseline, whereas almost none of the cells in the more superficial layers of the epidermis expressed MT. At 24 hrs after exposure to 2.5 MED SSUV, there were apparent differences in the expression of MT in the basal layers of the epidermis between sections treated with equol and those treated with DMSO in base lotion (vehicle). In all 5 participants, the expression of MT was higher in the skin treated with equol, with the magnitude of the difference ranging from +4% to +21%.
# p53 in the epidermis = assay: P53 staining in skin biopsies of human volunteers following UV irradiation
# Protocol: as §1
# The skin biopsies from the five human volunteers from Example 2 were tested for P53 staining following UV irradiation.
# CPDs in the epidermis = assay: Cyclobutane pyrimidine dimer formation in skin biopsies of human volunteers after UV irradiation (immunohistochemistry)
# Protocol: as §1
# The skin biopsies from the five human volunteers from Example 2 were tested for cyclobutane pyrimidine dimer formation using immunohistochemistry.
# [2] = system: cyclobutane pyrimidine dimers (CPD) in skin of hairless mice; assay: Induction of epidermal CPD-positive cells in skin of hairless mice exposed to SSUV (immunohistochemistry); settings: for reduction in the number of CPD compared with control group (vehicle alone): equol lotion 20 μM for 7 days prior and 5 days after SSUV, p<0.05; for CPD + ve cells/linear cm: hairless mice; for reduction of dimers: equol applied immediately after SSUV exposure and continuing for 5 d
# Text: The effect of equol on the induction of CPD was examined in the skin of hairless mice (a standard model for human dermatological investigations) exposed to solar simulated ultraviolet radiation (SSUV). At various time points after SSUV, dorsal skin was excised, fixed for 6 hr in a standard fixing medium (HistoChoice™, Amersco Inc, Solon, Ohio, USA), processed and paraffin-embedded. Pyrimidine dimers were detected immunohistochemically using citric acid antigen retrieval and the H3 anti-pyrimidine dimer antibody. The number of dimer-positive cells was counted manually in 30 fields per mouse, at 40× magnification.
# [3] = equol 200 μM topical, one row per subject (five volunteers)
# [4] = 24 hrs after 2.5 MED SSUV, equol 200 μM topical, one row per subject (five volunteers)
# [5] = 24 hrs after 2.5 MED SSUV, lotion containing equol 200 μM, one row per subject (five volunteers)
structure (smiles),measurement,setting,value
Oc1ccc(C2COc3cc(O)ccc3C2)cc1 (stereo not shown) [equol],expression of MT in skin treated with equol vs vehicle (in words),[1]; all 5 participants,higher
same,"MT staining, Basal epidermis, % positive cells",[1]; [3],76% and 59% and 69% and 77% and 60%
same,"MT staining, Basal epidermis, neg (cell count)",[1]; [3],118 and 188 and 239 and 154 and 157
same,"MT staining, Basal epidermis, pos (cell count)",[1]; [3],380 and 271 and 531 and 522 and 233
same,"MT staining, Total epidermis, % positive cells",[1]; [3],56% and 50% and 63% and 62% and 51%
same,"MT staining, Total epidermis, neg (cell count)",[1]; [3],303 and 270 and 315 and 323 and 225
same,"MT staining, Total epidermis, pos (cell count)",[1]; [3],382 and 271 and 539 and 527 and 234
same,"MT staining, Upper epidermis, % positive cells",[1]; [3],1% (2×) and 0% and 10% and 3%
same,"MT staining, Upper epidermis, neg (cell count)",[1]; [3],185 and 82 and 76 and 169 and 68
same,"MT staining, Upper epidermis, pos (cell count)",[1]; [3],2 and 0 and 8 and 5 and 1
same,"p53 staining, Basal epidermis, % positive cells",p53 in the epidermis; [4],22% and 8% and 11% and 6% and 26%
same,"p53 staining, Basal epidermis, neg (cell count)",p53 in the epidermis; [4],161 and 172 and 250 and 140 and 118
same,"p53 staining, Basal epidermis, pos (cell count)",p53 in the epidermis; [4],46 and 15 and 31 and 9 and 41
same,"p53 staining, Total epidermis, % positive cells",p53 in the epidermis; [4],26% and 21% and 9% and 4% and 25%
same,"p53 staining, Total epidermis, neg (cell count)",p53 in the epidermis; [4],270 and 337 and 500 and 287 and 227
same,"p53 staining, Total epidermis, pos (cell count)",p53 in the epidermis; [4],94 and 87 and 50 and 13 and 76
same,"p53 staining, Upper epidermis, % positive cells",p53 in the epidermis; [4],31% and 30% and 7% and 3% and 24%
same,"p53 staining, Upper epidermis, neg (cell count)",p53 in the epidermis; [4],109 (2×) and 165 and 250 and 147
same,"p53 staining, Upper epidermis, pos (cell count)",p53 in the epidermis; [4],48 and 72 and 19 and 4 and 35
same,percentage of p53 expression in upper and/or basal epidermis (in words),"p53 in the epidermis; 24 hrs after UV exposure, equol treated vs vehicle",reduced in four out of five equol treated subjects
same,reduction of percentage of p53 staining compared with vehicle controls,"p53 in the epidermis; subjects N13PDO and N14GBO, 24 hrs after UV exposure, 'generally'",more than 50%
same,"CPD staining, Basal epidermis, % positive cells",CPDs in the epidermis; [5],15% and 0% and 10% and 25% (2×)
same,"CPD staining, Basal epidermis, neg (cell count)",CPDs in the epidermis; [5],94 and 279 and 181 and 134 and 125
same,"CPD staining, Basal epidermis, pos (cell count)",CPDs in the epidermis; [5],16 and 1 and 21 and 44 and 41
same,"CPD staining, Total epidermis, % positive cells",CPDs in the epidermis; [5],19% and 5% and 25% and 31% (2×)
same,"CPD staining, Total epidermis, neg (cell count)",CPDs in the epidermis; [5],164 and 349 and 279 and 213 and 188
same,"CPD staining, Total epidermis, pos (cell count)",CPDs in the epidermis; [5],39 and 18 and 92 and 94 and 85
same,"CPD staining, Upper epidermis, % positive cells",CPDs in the epidermis; [5],25% and 20% and 42% and 39% and 41%
same,"CPD staining, Upper epidermis, neg (cell count)",CPDs in the epidermis; [5],70 (2×) and 98 and 79 and 63
same,"CPD staining, Upper epidermis, pos (cell count)",CPDs in the epidermis; [5],23 and 17 and 71 and 50 and 44
same,"CPD-positive cells, equol lotion vs DMSO in base lotion (vehicle) (in words)","CPDs in the epidermis; 24 hrs after UV exposure, 4 out of 5 participants",proportionally less CPD-positive cells
same,"CPD damage, data from all participants pooled (in words)","CPDs in the epidermis; at 24 hours, pooled participants",moderately lower levels of CPD damage
same,reduction in the number of CPD compared with control group (vehicle alone),[2]; 1 hour after SSUV,54%
same,CPD + ve cells/linear cm,"[2]; 1 hr post-SSUV, equol lotion 20 μM daily for 7 days prior to and following 1×3 MED SSUV",238 ± 22 cells/linear cm
same,reduction of dimers,[2]; 1 day post-irradiation,23%
same,reduction in the number of CPD compared with control group (vehicle alone),[2]; 24 hours after SSUV,50%
same,CPD + ve cells/linear cm,"[2]; 24 hr post-SSUV, equol lotion 20 μM daily for 7 days prior to and following 1×3 MED SSUV",167 ± 17 cells/linear cm
same,reduction in the number of CPD compared with control group (vehicle alone),[2]; 48 hours after SSUV,26%
same,reduction of dimers,"[2]; 2 d post-irradiation, data not shown",42%
same,effect on dimer induction and repair (in words),[2]; equol lotion 20 μM daily for 7 days prior to and following 1×3 MED SSUV,"reduce the initial induction of dimers, and to enhance the rate of their repair"
